The text below walks through data of US20230219965A1 (KSQ Therapeutics, Inc., priority 2020, published 2023).

The test addresses USP1/UAF1 enzyme (Homo sapiens, UniProt O94782). The test is described as follows: USP1/UAF1 deubiquitination assay (ubiquitin-rhodamine 110 substrate). The class given is biochemical. The note with it: read-out: USP1 IC50 (Ub-Rho). As to the method:
Certain Compounds of the Disclosure were assessed for USP1/UAF1 activity in a Ubiquitin Rhodamine assay modified from those described previously.
Deubiquitinase activity was measured using ubiquitin-rhodamine 110 as a substrate. Cleavage of the amide bond between rhodamine and the c-terminal glycine of ubiquitin yields an increase in fluorescence signal. The assay was conducted in 20 μl total volume of assay buffer (50 mM Tris-HCl, pH 7.8, 0.5 mM EDTA, 0.01% Bovine Serum Albumin, 1 mM DTT, 0.01% Tween-20), and 0.05 nM USP1/UAF1 enzyme. Reaction was initiated by addition of 150 nM Ubiquitin-rhodamine (Boston Biochem) substrate.
Compounds of the Disclosure, dissolved in DMSO were tested in dose response format, beginning at […].
The example compounds listed below were added to enzyme/assay buffer mix and incubated 10 min. Substrate mix was added, and reaction mix was read in kinetic mode for 30 min at Ex480/Em540 and IC50 response curves were plotted.
Data for all assay formats was calculated as percent inhibition compared with control wells. Percent inhibition was calculated using the following equation: % inhibition=100×[1−(X−min)/(max−min)], where X is the raw data readout, min is the average of the no enzyme control wells (n=32), max is the average of the DMSO control well (n=32). IC50 values were calculated using the standard four parameter curve fitting algorithm in either Prism GraphPad (La Jolla, Calif.) software, or Collaborative Drug Discovery (Burlingame, Calif.) CDD Vault. See Chem. Biol. 20(1): 55-62 (Jan. 24, 2013); Bioorg. Med. Chem. Lett. 23(20): 5660-5666 (Oct. 15, 2013).

Some results are limits rather than exact numbers.

USP1/UAF1 enzyme, sequence (O94782 whole entry): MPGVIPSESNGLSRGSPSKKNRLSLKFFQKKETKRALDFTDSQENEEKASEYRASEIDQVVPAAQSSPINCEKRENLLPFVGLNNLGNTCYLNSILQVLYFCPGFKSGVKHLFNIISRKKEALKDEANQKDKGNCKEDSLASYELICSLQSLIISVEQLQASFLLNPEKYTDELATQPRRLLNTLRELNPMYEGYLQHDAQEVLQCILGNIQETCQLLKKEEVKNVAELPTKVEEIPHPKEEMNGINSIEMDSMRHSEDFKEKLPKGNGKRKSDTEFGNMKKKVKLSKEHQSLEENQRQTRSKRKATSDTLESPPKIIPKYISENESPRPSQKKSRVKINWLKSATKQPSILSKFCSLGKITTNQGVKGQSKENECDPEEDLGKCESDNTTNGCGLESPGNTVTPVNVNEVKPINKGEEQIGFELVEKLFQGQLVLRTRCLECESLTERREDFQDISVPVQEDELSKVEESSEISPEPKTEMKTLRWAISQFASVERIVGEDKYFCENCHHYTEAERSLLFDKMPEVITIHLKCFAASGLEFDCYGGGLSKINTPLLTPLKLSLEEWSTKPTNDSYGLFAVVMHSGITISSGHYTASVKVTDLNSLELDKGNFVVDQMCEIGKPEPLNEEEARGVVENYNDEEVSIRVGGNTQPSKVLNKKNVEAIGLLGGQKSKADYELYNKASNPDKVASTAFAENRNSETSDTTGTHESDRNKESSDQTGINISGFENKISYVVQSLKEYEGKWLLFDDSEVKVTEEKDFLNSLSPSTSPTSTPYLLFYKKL
USP1/UAF1 enzyme, sequence (Q8TAF3 whole entry partner): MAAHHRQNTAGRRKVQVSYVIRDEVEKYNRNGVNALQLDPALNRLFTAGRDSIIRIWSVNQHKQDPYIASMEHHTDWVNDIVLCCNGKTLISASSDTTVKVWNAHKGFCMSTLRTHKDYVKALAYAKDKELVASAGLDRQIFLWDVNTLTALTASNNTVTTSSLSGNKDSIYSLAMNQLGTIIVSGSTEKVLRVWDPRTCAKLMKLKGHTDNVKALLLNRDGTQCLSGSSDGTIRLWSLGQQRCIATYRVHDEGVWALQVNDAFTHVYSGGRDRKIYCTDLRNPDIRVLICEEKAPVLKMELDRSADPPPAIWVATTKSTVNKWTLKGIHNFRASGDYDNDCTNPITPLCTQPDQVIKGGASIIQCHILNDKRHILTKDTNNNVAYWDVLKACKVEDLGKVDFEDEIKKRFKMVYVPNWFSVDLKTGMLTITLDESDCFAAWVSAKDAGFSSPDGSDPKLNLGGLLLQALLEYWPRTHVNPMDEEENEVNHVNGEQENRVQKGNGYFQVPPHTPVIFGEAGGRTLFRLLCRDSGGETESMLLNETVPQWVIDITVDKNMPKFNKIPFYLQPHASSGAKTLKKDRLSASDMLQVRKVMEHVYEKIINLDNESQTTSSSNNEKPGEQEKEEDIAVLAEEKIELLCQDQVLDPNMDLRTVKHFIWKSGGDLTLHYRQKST

For orientation: IC50 means the point on the concentration scale where inhibition reaches its midpoint. For the compound `COc1cccnc1-c1ccc(N[C@@H]2CCCn3nc(-c4c(OC)ncnc4C4CC4)cc32)cc1F` (single isomer, unassigned) [Example 251], the IC50 is over 500 nM.

As for `COc1cccnc1-c1ccc(N[C@H]2CCCn3nc(-c4c(OC)ncnc4C4CC4)cc32)cc1F` (single isomer, unassigned) [Example 252], the IC50 is 100 to 500 nM.

Regarding `COc1cccnc1-c1ccc(N[C@@H]2CCCn3nc(-c4c(OC)ncnc4C4CC4)cc32)cc1Cl` (single isomer, unassigned) [Example 253], the IC50 fell in the range of 100 to 500 nM.

For the compound `COc1cccnc1-c1ccc(N[C@H]2CCCn3nc(-c4c(OC)ncnc4C4CC4)cc32)cc1Cl` (single isomer, unassigned) [Example 254], the IC50 lay within 100 to 500 nM.

For the compound `COc1ncnc(C2CC2)c1-c1cc2n(n1)CCC(=O)N2C(C)c1ccc(-c2nc(C(F)(F)F)cn2C)cc1` (centres unmarked) [Example 3, 2-(4-cyclopropyl-6-methoxypyrimidin-5-yl)-4-(1-(4-(1-methyl-4-(trifluoromethyl)-1H-imidazol-2-yl)phenyl)ethyl)-6,7-dihy dropyrazolo[1,5-a]pyrimidin-5(4H)-one], the IC50 was 100 to 500 nM.

As for `CCn1cc(C(F)(F)F)nc1-c1ccc(CN2C(=O)CCn3nc(-c4c(OC)ncnc4OC)cc32)cc1` [Example 5, 2-(4,6-dimethoxypyrimidin-5-yl)-4-(4-(1-ethyl-4-(trifluoromethyl)-1H-imidazol-2-yl)benzyl)-6,7-dihydropyrazolo[1,5-a]pyrimidin-5(4H)-one], the IC50 was 100 to 500 nM.

Regarding `CCn1nc(-c2ccc(CN3C(=O)CCn4nc(-c5c(C)cnn5C(C)C)cc43)cc2)nc1C(F)(F)F` [Example 15, 4-(4-(1-ethyl-5-(trifluoromethyl)-1H-1,2,4-triazol-3-yl)benzyl)-2-(1-isopropyl-4-methyl-1H-pyrazol-5-yl)-6,7-dihydropyrazolo[1,5-a]pyrimidin-5(4H)-one], the IC50 is over 500 nM.

In the case of `CCn1ncc(Cl)c1-c1cc2n(n1)CCC(=O)N2Cc1ccc(-c2nc(C(F)(F)F)cn2C)c(F)c1` [Example 17, 2-(4-chloro-1-ethyl-1H-pyrazol-5-yl)-4-(3-fluoro-4-(1-methyl-4-(trifluoromethyl)-1H-imidazol-2-yl)benzyl)-6,7-dihydropyrazolo[1,5-a]pyrimidin-5(4H)-one], the IC50 was under 100 nM.

For the compound `CC(C)n1ncc(F)c1-c1cc2n(n1)CCC(=O)N2Cc1ccc(-c2nc(C(F)(F)F)cn2C)c(F)c1` [Example 21, 2-(4-fluoro-1-isopropyl-1H-pyrazol-5-yl)-4-(3-fluoro-4-(1-methyl-4-(trifluoromethyl)-1H-imidazol-2-yl)benzyl)-6,7-dihydropyrazolo[1,5-a]pyrimidin-5(4H)-one], the IC50 is 100 to 500 nM.

As to `CCn1cc(C(F)(F)F)nc1-c1ccc(CN2C(=O)CCn3nc(-c4cccc5c4N(C)CC5)cc32)cc1` [Example 23, 4-(4-(1-ethyl-4-(trifluoromethyl)-1H-imidazol-2-yl)benzyl)-2-(1-methylindolin-7-yl)-6,7-dihydropyrazolo[1,5-a]pyrimidin-5(4H)-one], the IC50 fell in the range of 100 to 500 nM.

For `COc1ncnc(C)c1-c1cc2n(n1)CCCN2Cc1ccc(-n2nc(C(F)(F)F)cc2C)cc1` [Example 26], the IC50 was in the range of 100 to 500 nM.

Turning to `CCn1cc(C(F)(F)F)nc1-c1ccc(CN2C(=O)CCn3nc(-c4c(OC)cnn4C(C)C)nc32)cc1` [Example 45], the IC50 is over 500 nM.

`COc1ncnc(C2CC2)c1-c1cc2n(n1)CCC(=O)N2Cc1ccc(-c2nc(C(F)(F)F)c[nH]2)cc1` [Example 69, 2-(4-cyclopropyl-6-methoxypyrimidin-5-yl)-4-(4-(4-(trifluoromethyl)-1H-imidazol-2-yl)benzyl)-6,7-dihydropyrazolo[1,5-α]pyrimidin-5(4H)-one]: the IC50 fell in the range of 100 to 500 nM.

Turning to `COc1ncnc(C2CC2)c1-c1cc2n(n1)CC(C)(C)C(=O)N2Cc1ccc(-c2nc(C(F)(F)F)cn2C)cc1` [Example 76, 2-(4-cyclopropyl-6-methoxypyrimidin-5-yl)-6,6-dimethyl-4-(4-(1-methyl-4-(trifluoromethyl)-1H-imidazol-2-yl)benzyl)-6,7-dihydropyrazolo[1,5-α]pyrimidin-5(4H)-one], the IC50 lay within 100 to 500 nM.

For `COc1ncnc(C2CC2)c1-c1cc2n(n1)CCC(=O)N2Cc1ccc(-c2nc(C(F)(F)F)cn2CCF)cc1` [Example 81], the IC50 is under 100 nM.

On to `CC(C)n1ncc(Cl)c1-c1cc2n(n1)CCC(=O)N2Cc1ccc(-c2nc(C(F)(F)F)cn2C)nc1` [Example 82], for which the IC50 is 100 to 500 nM.

`COc1ncnc(C2CC2)c1-c1cc2n(n1)CCC(=O)N2Cc1ccc(-c2nc(C(F)(F)F)cn2C)nc1` [Example 83]: the IC50 is over 500 nM.

As for `CCn1nc(C(F)(F)F)nc1-c1ccc(CN2C(=O)CCn3nc(-c4c(Cl)cnn4C(C)C)cc32)cc1` [Example 84], the IC50 lay within 100 to 500 nM.

With `CCn1cc(C(F)(F)F)nc1-c1ccc(CN2C(=O)CCn3nc(-c4c(F)cnn4C(C)C)cc32)cc1` [Example 85], the IC50 was 100 to 500 nM.

Consider `CCn1nc(C(F)(F)F)nc1-c1ccc(CN2C(=O)CCn3nc(-c4c(OC)ncnc4C4CC4)cc32)cc1` [Example 87], for which the IC50 is over 500 nM.

For `COc1ncnc(C2CC2)c1-c1cc2n(n1)CCC(=O)N2Cc1ccc(-n2nc(C)cc2C(F)(F)F)c(F)c1` [Example 88], the IC50 lay within 100 to 500 nM.

Take `COc1cc(C(F)(F)F)nn1-c1ccc(CN2C(=O)CCn3nc(-c4c(Cl)cnn4C(C)C)cc32)cn1` [Example 89]: the IC50 was under 100 nM.

With `COc1ncnc(C2CC2)c1-c1cc2n(n1)CCC(=O)N2Cc1ccc(-c2nn(C)cc2C)cc1` [Example 90], the IC50 is over 500 nM.

Regarding `Cc1cc(C(F)(F)F)n(-c2ccc(CN3C(=O)CCn4nc(-c5c(Cl)cnn5C(C)C)cc43)cc2F)n1` [Example 92], the IC50 was over 500 nM.

In the case of `COc1ncnc(C2CC2)c1-c1cc2n(n1)CCC(=O)N2Cc1ccc(-n2nc(C(F)(F)F)cc2OC)nc1` [Example 94], the IC50 was 100 to 500 nM.

In the case of `CC(C)n1ncc(Cl)c1-c1cc2n(n1)CCC(=O)N2Cc1ccc(-c2ccn(C)n2)cc1` [Example 95], the IC50 is 100 to 500 nM.

Consider `COCc1cc(C(F)(F)F)nn1-c1ccc(CN2C(=O)CCn3nc(-c4c(OC)ncnc4C4CC4)cc32)cc1` [Example 99], for which the IC50 lay within 100 to 500 nM.

`CC(C)n1ncc(Cl)c1-c1cc2n(n1)CCC(=O)N2Cc1ccc(-c2nc(C(F)(F)F)n(C)n2)cc1` [Example 101]: the IC50 was 100 to 500 nM.

Take `CC(C)n1ncc(Cl)c1-c1cc2n(n1)CCC(=O)N2Cc1ccc(-c2nc(C(F)(F)F)nn2C)cc1` [Example 102]: the IC50 was 100 to 500 nM.

In the case of `CCn1cc(C(F)(F)F)nc1-c1ccc(CN2C(=O)CCn3nc(-c4c(OC)ncnc4C4CC4)cc32)cn1` [Example 105], the IC50 was 100 to 500 nM.

For `COc1ncnc(C2CC2)c1-c1cc2n(n1)CCC(=O)N2Cc1ccc(-n2nc(C#N)cc2OC)cc1` [Example 107], the IC50 lay within 100 to 500 nM.

In the case of `CC(c1ccc(F)cc1)N1C(=O)CCn2nc(-c3c(Cl)cnn3C(C)C)cc21` (centres unmarked) [Example 110], the IC50 was 100 to 500 nM.

In the case of `COc1ccnn1-c1ccc(CN2C(=O)CCn3nc(-c4c(Cl)cnn4C(C)C)cc32)cc1` [Example 117], the IC50 fell in the range of 100 to 500 nM.

Take `CCn1cc(C(F)(F)F)nc1-c1cc2c(cc1F)C(N1C(=O)CCn3nc(-c4c(Cl)cnn4C(C)C)cc31)CC2` (centres unmarked) [Example 121]: the IC50 is 100 to 500 nM.

As to `CCn1cc(C)nc1-c1ccc(CN2C(=O)CCn3nc(-c4c(Cl)cnn4C(C)C)cc32)cc1` [Example 134], the IC50 is 100 to 500 nM.
